The conditions of data set [1]: in vivo; cited from earlier work.
Data set [2] relates to younger subject two. The experiment in a line: Trial: small amounts of amantadine with creatine, with or without a PDE5 inhibitor ED drug. The format is in vivo, human. To be noted: for Results in conjugal sexual activity: ED drugs in low doses over the past four years; for Effectiveness of small dose of the PDE5 inhibitor ED drug alone: VIAGRA about 12.5 mg or LEVITRA about 2.5 mg, normally. The procedure: In a trial, the younger subject two ingested small amounts of amantadine along with about 88 mg of creatine. The small amounts of amantadine were measured by opening a capsule of amantadine and pouring out small amounts. Ten individual administrations used less than one 100 mg capsule of amantadine. Thus, the dose of amantadine was approximately 5 mg to approximately 10 mg.
The subject noted a body weight that varied little from about 78 kg over the past twenty plus years. The subject noted no use of blood pressure or other prescribed medications on a regular basis.

Another data set relates to younger subject one. In words: Observation of the younger subject on lycopene-containing foods. To be noted: on occasion, for one day at a time. The format is in vivo, human. From the text:
Other exemplary compositions may include lycopene. […] Lycopene is present in tomato products while other foods of interest include certain beans and blue berries. An exemplary method includes administering such a composition. For example, a composition that includes creatine and lycopene may be administered to a subject to treat a urologic disorder. An exemplary method includes administering creatine and lyocpene to treat a urologic disorder.

The subject of a further data set is patients. To be noted: in vivo; cited from earlier work.
In data set [3] the test system is younger subject two. The experiment in a line: Trial: occasional amantadine for flu prophylaxis, nocturnal urinary symptoms. To be noted: occasional administration of about 100 mg. The class given is in vivo, human. The procedure:
A trial involving the younger subject two involved occasional administration of about 100 mg of amantadine for flu prophylaxis.

For data set [4], the system named is varsity football and track athletes. Particulars: 3 g per day without prior loading; cited from earlier work.
In data set [5] the test system is two male subjects with urinary symptoms. The experiment in a line: Additional trials: creatine monohydrate in solution, loading phase and maintenance phase. The format is in vivo, human. As to the method:
[…] […] […] The post-loading phase is referred to herein as a maintenance phase. The dose may vary during the maintenance phase; however, it is generally at least 50% less than the dose used in a loading phase.
In these trials, urinary flow-related symptoms were reduced.
However, in various trials, a delay in relief was experienced that corresponded to the dose size where a larger than required dose would actually delay relief (e.g. beyond 24 hours to as much as 72 hours). […] Such trials indicate that a dosage range exists for relief of symptoms and for timing of the relief.

Data set [6] concerns subject one with nocturia and diagnosed moderate prostate enlargement. In words: Trial: single dose of creatine monohydrate powder in solution prior to sleep. The class given is in vivo, human. To be noted: person two. The procedure:
A trial provided creatine monohydrate as a powder (about 100% creatine monohydrate) and administered a single dose (approximately 0.1 to 0.2 g) of the creatine monohydrate powder in a solution (about 0.09 to 0.17 g creatine) approximately 0.5 to 3 hours prior to sleep. Urinary flow-related symptoms were reduced for the immediate sleep period and for sleep periods during the following 48 hours.
The subject weighed approximately 80 kg (about 175 lbs). Thus, the dosage was about 0.9 mg of creatine per kg of body weight. Range may vary by individual and prior consumption of a creatine compound. A general range for CSUE may be from about 0.4 mg creatine monohydrate to about 4.0 mg creatine monohydrate per kg body weight per day (e.g., about 32 mg to about 320 mg per day for a subject weighing about 80 kg). As already mentioned, the various trials used creatine monohydrate powder (about 100%) in solution. Thus, in terms of creatine content, the general range for CSUE may be from about 0.35 mg creatine per kg body weight per day (e.g., about 0.4*(3.124.4/5) mg) to about 3.5 mg creatine per kg body weight per day (e.g., 4.0*(3.124.4/5) mg). While dose may vary from patient to patient, the dose is typically less than the dose for CSR.

The mark [7] stands for this setting: single dose approx 0.1 to 0.2 g in solution prior to sleep.

In the case of `C[C@]12CC[C@H](OS(=O)(=O)O)CC1=CC[C@@H]1[C@@H]2CC[C@]2(C)C(=O)CC[C@@H]12` [DHEA-S, DHEA-sulfate], the “Levels of testosterone and androstenedione” value in data set [1] is reported as “increased levels”.

On to `CCCc1nc(C)c2c(=O)nc(-c3cc(S(=O)(=O)N4CCN(CC)CC4)ccc3OCC)[nH]n12` [LEVITRA®, 4-[2-ethoxy-5-(4-ethylpiperazin-1-yl)sulfonyl-phenyl]-9-methyl-7-propyl-3,5,6,8-tetrazabicyclo[4.3.0]nona-3,7,9-trien-2-one], for which, in the data set on younger subject two [2], the “Results in conjugal sexual activity” value is “good results” and the “Effectiveness of small dose of the PDE5 inhibitor ED drug alone” value is on record as “somewhat marginally effective”.

Consider `CC(C)=CCC/C(C)=C/C=C/C(C)=C/C=C/C(C)=C/C=C/C=C(C)/C=C/C=C(C)/C=C/C=C(\C)CCC=C(C)C` [Lycopene, lycopene], for which the “Nocturnal urine stream slowing” value with younger subject one is given as “a lack of nocturnal urine stream slowing”.

Regarding `CC12CC3CC(C)(C1)CC(N)(C3)C2` [Memantine, 1-amino-3,5-dimethyl-adamantane], the Tolerability entry in the data set with patients was “generally well-tolerated”.

Turning to `CCCc1nn(C)c2c(=O)[nH]c(-c3cc(S(=O)(=O)N4CCN(C)CC4)ccc3OCC)nc12.O=C(O)CC(O)(CC(=O)O)C(=O)O` [VIAGRA®, 1-[4-ethoxy-3-(6,7-dihydro-1-methyl-7-oxo-3-propyl-1H-pyrazolo[4,3-d]pyrimidin-5-yl)phenylsulfonyl]-4-methylpiperazine citrate], in the data set on younger subject two [2], the “Results in conjugal sexual activity” value is recorded as “good results” and the “Effectiveness of small dose of the PDE5 inhibitor ED drug alone” value is listed as “somewhat marginally effective”.

Take `NC12CC3CC(CC(C3)C1)C2` [amantadine, adamantan-1-amine]: the Nocturnal urinary symptoms result with younger subject two [3] is given as “reduction in nocturnal urinary symptoms”. In addition, in the data set with younger subject two [2] (about 5 mg of amantadine), the “Effect compared with DHEA taken to enhance libido (readiness for and enjoyment of orgasm)” value is reported as “similarly beneficial but distinct effect”. The “Effect relative to that of the PDE5 inhibitor ED drugs” value in the data set with younger subject two [2] (subject's observation) is “additive”.

Consider `CN(CC(=O)O)C(=N)N.O` [creatine monohydrate], for which the Ergogenic effect entry in data set [4] was “did not observe ergogenic effect”. Also, in data set [5] (both subjects, loading phase 0.1 to 1.0 g, then maintenance about 50 to 150 mg every other day), the “Symptoms (urinary)” value is “symptoms were relieved”. The “Initiation of urine stream at night” value in data set [5] (doses larger than about 0.25 g in the maintenance phase, younger subject) is listed as “more difficult until 24 hours to 48 hours later”. Further, the Urinary symptom reduction entry in data set [5] (doses of greater than 1 g after the loading phase, both subjects) is “less urinary symptom reduction”. Moreover, the Urinary flow-related symptoms entry in data set [6] (single dose approx 0.1 to 0.2 g in solution 0.5 to 3 hours prior to sleep, immediate sleep period and sleep periods of following 48 hours) was “reduced”. Also, in data set [6] (setting [7]), the Nocturnal erections result is reported as “increase in nocturnal erections” and the “Testicular blood flow as evidenced by palpable scrotal content enlargement” value is “increase in testicular blood flow”.

These data come from US8513306B2, “Enhancement of urogenital function” (priority 2005, dated 2013).
